Reference: PubChem BioAssay AID248 (DTP/NCI, 2004)
Where “and” joins values, the source holds several entries; their conditions need not be identical. Equal values may be shown once. Toxic doses and inconclusive results are not listed.

Tested on: L1210 leukemia ip in BDF1 mice, survival T/C
Experiment: NCI In Vivo Anticancer Drug Screen. Data for tumor model L1210 Leukemia (intraperitoneal) in B6D2F1 (BDF1) mice
Conditions: endpoint: mean survival time, higher = longer survival
Method in brief: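 Transplantable tumor model; survival measured in treated vs vehicle control mice. Value = treated/control.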

[1] = dose: 100.0 mg/kg/injection, schedule: Q01DX009 (ip), vehicle: saline with Tween-80
[2] = dose: 200.0 mg/kg/injection, schedule: Q01DX009 (ip), vehicle: saline with Tween-80
[3] = dose: 400.0 mg/kg/injection, schedule: Q01DX009 (ip), vehicle: saline with Tween-80
[4] = dose: 100.0 mg/kg/injection, schedule: Q04DX002 (ip), vehicle: Klucel (hydroxypropylcellulose) (HPC)
[5] = dose: 200.0 mg/kg/injection, schedule: Q04DX002 (ip), vehicle: Klucel (hydroxypropylcellulose) (HPC)
[6] = dose: 400.0 mg/kg/injection, schedule: Q04DX002 (ip), vehicle: Klucel (hydroxypropylcellulose) (HPC)
[7] = dose: 100.0 mg/kg/injection, schedule: Q01DX001 (ip), vehicle: saline
[8] = dose: 200.0 mg/kg/injection, schedule: Q01DX001 (ip), vehicle: saline
[9] = dose: 400.0 mg/kg/injection, schedule: Q01DX001 (ip), vehicle: saline

In the case of CCOC(=O)Nc1cc(NC(c2ccccc2)c2ccccc2)c2[nH]cnc2n1, the T/C (dose: 4.0 mg/kg/injection, schedule: Q01DX009 (ip), vehicle: other) is reported as 92 % of control, the T/C (dose: 5.0 mg/kg/injection, schedule: Q01DX001 (ip), vehicle: other) is reported as 104 % of control and the T/C (dose: 7.0 mg/kg/injection, schedule: Q01DX009 (ip), vehicle: other) is reported as 93 % of control. For the same compound, the T/C (dose: 9.0 mg/kg/injection, schedule: Q01DX009 (ip), vehicle: other) was 95 % of control, the T/C (dose: 9.0 mg/kg/injection, schedule: Q01DX009 (ip), vehicle: steriod suspending solution) was 97 % of control and the T/C (dose: 10.0 mg/kg/injection, schedule: Q01DX001 (ip), vehicle: other) was 102 % of control. For the same compound, the T/C (dose: 12.0 mg/kg/injection, schedule: Q01DX009 (ip), vehicle: other) was 92 % of control, the T/C (dose: 13.0 mg/kg/injection, schedule: Q01DX009 (ip), vehicle: other) was 95 % of control and the T/C (dose: 13.0 mg/kg/injection, schedule: Q01DX009 (ip), vehicle: steriod suspending solution) was 97 % of control. For the same compound, the T/C (dose: 18.0 mg/kg/injection, schedule: Q01DX001 (ip), vehicle: steriod suspending solution) was 98 % of control, the T/C (dose: 20.0 mg/kg/injection, schedule: Q01DX001 (ip), vehicle: other) was 100 % of control and 106 % of control and the T/C (dose: 20.0 mg/kg/injection, schedule: Q01DX009 (ip), vehicle: other) was 95 % of control and 112 % of control. The T/C (dose: 20.0 mg/kg/injection, schedule: Q01DX009 (ip), vehicle: steriod suspending solution) was 103 % of control, the T/C (dose: 26.0 mg/kg/injection, schedule: Q01DX001 (ip), vehicle: steriod suspending solution) was 100 % of control and the T/C (dose: 30.0 mg/kg/injection, schedule: Q01DX001 (ip), vehicle: other) was 119 % of control. The T/C (dose: 30.0 mg/kg/injection, schedule: Q01DX009 (ip), vehicle: other) was 105 % of control, the T/C (dose: 30.0 mg/kg/injection, schedule: Q01DX009 (ip), vehicle: steriod suspending solution) was 124 % of control and the T/C (dose: 40.0 mg/kg/injection, schedule: Q01DX001 (ip), vehicle: other) was 164 % of control. The T/C (dose: 40.0 mg/kg/injection, schedule: Q01DX001 (ip), vehicle: steriod suspending solution) was 105 % of control, the T/C (dose: 50.0 mg/kg/injection, schedule: Q01DX001 (ip), vehicle: other) was 155 % of control and the T/C (dose: 60.0 mg/kg/injection, schedule: Q01DX001 (ip), vehicle: other) was 119 % of control. The T/C (dose: 60.0 mg/kg/injection, schedule: Q01DX001 (ip), vehicle: steriod suspending solution) was 111 % of control, the T/C (dose: 80.0 mg/kg/injection, schedule: Q01DX001 (ip), vehicle: other) was 107 % of control and the T/C (dose: 100.0 mg/kg/injection, schedule: Q01DX001 (ip), vehicle: other) was 107 % of control.

COC(CCC#N)c1ccccc1 (stereo not given) was tested, and the T/C [1] was 97 % of control, the T/C (dose: 100.0 mg/kg/injection, schedule: Q04DX003 (ip), vehicle: saline with Tween-80) was 105 % of control and the T/C [2] was 100 % of control. For the same compound, the T/C (dose: 200.0 mg/kg/injection, schedule: Q04DX003 (ip), vehicle: saline with Tween-80) was 97 % of control, the T/C [3] was 101 % of control and the T/C (dose: 400.0 mg/kg/injection, schedule: Q04DX003 (ip), vehicle: saline with Tween-80) was 102 % of control.

O=C(O)c1ccccc1/C=C/c1ccc([N+](=O)[O-])cc1 was tested, and the T/C (dose: 100.0 mg/kg/injection, schedule: Q01DX001 (ip), vehicle: saline with Tween-80) was 97 % of control.

With CCCCN(CCCCS(=O)(=O)O)c1ccc(N=Nc2cc(Cl)ccc2Cl)cc1 the T/C (dose: 100.0 mg/kg/injection, schedule: Q04DX003 (ip), vehicle: Klucel (hydroxypropylcellulose) (HPC)) was 94 % of control and the T/C (dose: 200.0 mg/kg/injection, schedule: Q04DX003 (ip), vehicle: Klucel (hydroxypropylcellulose) (HPC)) was 105 % of control.

Cc1ccc(S(=O)(=O)Nc2ccccc2)cc1 was tested, and the T/C [4] was 100 % of control, the T/C [5] was 94 % of control and the T/C [6] was 91 % of control.

NC(N)=N/N=C\c1ccc(OCc2ccccc2)cc1 was tested, and the T/C (dose: 15.0 mg/kg/injection, schedule: Q01DX Z (ip), vehicle: saline) was 96 % of control, the T/C (dose: 15.0 mg/kg/injection, schedule: Q01DX Z (oral), vehicle: saline) was 91 % of control and the T/C (dose: 30.0 mg/kg/injection, schedule: Q01DX Z (ip), vehicle: saline) was 102 % of control. The T/C (dose: 30.0 mg/kg/injection, schedule: Q01DX Z (oral), vehicle: saline) was 94 % of control, the T/C (dose: 60.0 mg/kg/injection, schedule: Q01DX Z (oral), vehicle: saline) was 90 % of control and the T/C (dose: 120.0 mg/kg/injection, schedule: Q01DX010 (oral), vehicle: saline) was 102 % of control. For the same compound, the T/C (dose: 120.0 mg/kg/injection, schedule: Q01DX Z (oral), vehicle: saline) was 89 % of control, the T/C (dose: 240.0 mg/kg/injection, schedule: Q01DX010 (oral), vehicle: saline) was 102 % of control and the T/C (dose: 400.0 mg/kg/injection, schedule: Q01DX010 (oral), vehicle: saline) was 91 % of control.

For COc1ccc(C(=O)C(C)C(O)C(=O)O)c(O)c1C (stereo not given), the T/C [1] was 96 % of control, the T/C (dose: 100.0 mg/kg/injection, schedule: Q04DX003 (ip), vehicle: saline) was 97 % of control and the T/C [2] was 100 % of control. The T/C (dose: 200.0 mg/kg/injection, schedule: Q04DX003 (ip), vehicle: saline) was 94 % of control, the T/C [3] was 102 % of control and the T/C (dose: 400.0 mg/kg/injection, schedule: Q04DX003 (ip), vehicle: saline) was 98 % of control.

In the case of COc1cccc(Nc2ccc(C(=O)O)cc2[N+](=O)[O-])c1, the T/C (dose: 100.0 mg/kg/injection, schedule: Q04DX003 (ip), vehicle: water) is reported as 98 % of control, the T/C (dose: 200.0 mg/kg/injection, schedule: Q04DX003 (ip), vehicle: water) is reported as 103 % of control and the T/C (dose: 400.0 mg/kg/injection, schedule: Q04DX003 (ip), vehicle: water) is reported as 98 % of control.

For CCOC(=O)CSC1=NCCN1, the T/C [7] was 105 % of control, the T/C [8] was 113 % of control and the T/C [9] was 105 % of control.

In the case of O=C(COc1ccc(Cl)cc1)C1CSc2ccc(Br)cc21 (stereo not given), the T/C (dose: 100.0 mg/kg/injection, schedule: Q04DX003 (ip), vehicle: saline sonified) is reported as 89 % of control, the T/C (dose: 200.0 mg/kg/injection, schedule: Q04DX003 (ip), vehicle: saline sonified) is reported as 101 % of control and the T/C (dose: 400.0 mg/kg/injection, schedule: Q04DX003 (ip), vehicle: saline sonified) is reported as 92 % of control.

In the case of O=C(NO)Oc1cccc2ccccc12, the T/C (dose: 25.0 mg/kg/injection, schedule: Q04DX002 (ip), vehicle: saline with Tween-80) is reported as 105 % of control, the T/C (dose: 50.0 mg/kg/injection, schedule: Q04DX002 (ip), vehicle: saline with Tween-80) is reported as 119 % of control and the T/C (dose: 100.0 mg/kg/injection, schedule: Q04DX002 (ip), vehicle: saline with Tween-80) is reported as 89 % of control.

O=C(Nc1ccccc1)Oc1ccc(Cl)cc1Cc1ccccc1 was tested, and the T/C [4] was 87 % of control and the T/C [6] was 101 % of control.

In the case of CCCCCCCCCCCCCCCCCCNC(=O)Nc1c(C)cc(C)cc1C, the T/C (dose: 100.0 mg/kg/injection, schedule: Q01DX009 (ip), vehicle: gum acacia) is reported as 94 % of control, the T/C (dose: 100.0 mg/kg/injection, schedule: Q04DX003 (ip), vehicle: gum acacia) is reported as 90 % of control and the T/C (dose: 200.0 mg/kg/injection, schedule: Q01DX009 (ip), vehicle: gum acacia) is reported as 87 % of control. For the same compound, the T/C (dose: 200.0 mg/kg/injection, schedule: Q04DX003 (ip), vehicle: gum acacia) was 93 % of control, the T/C (dose: 400.0 mg/kg/injection, schedule: Q01DX009 (ip), vehicle: gum acacia) was 94 % of control and the T/C (dose: 400.0 mg/kg/injection, schedule: Q04DX003 (ip), vehicle: gum acacia) was 87 % of control.

In the case of COc1cc(C(=O)Nc2ccccc2SC)cc(OC)c1OC, the T/C [4] is reported as 100 % of control, the T/C [5] is reported as 97 % of control and the T/C [6] is reported as 90 % of control.

With CNNC(=O)C(O)C(C)(C)CO (stereo not given) the T/C [7] was 100 % of control, the T/C [8] was 100 % of control and the T/C [9] was 102 % of control.

For NC(Cc1ccccc1)C(=O)CCl (stereo not given), the T/C (dose: 25.0 mg/kg/injection, schedule: Q04DX002 (ip), vehicle: saline) was 105 % of control and the T/C (dose: 50.0 mg/kg/injection, schedule: Q04DX002 (ip), vehicle: saline) was 108 % of control.

Cc1cc(N(CCCl)CCCl)ccc1C=Nc1ccccc1-n1ccnc1C was tested, and the T/C (dose: 75.0 mg/kg/injection, schedule: Q04DX002 (ip), vehicle: Klucel (hydroxypropylcellulose) (HPC)) was 98 % of control, the T/C (dose: 150.0 mg/kg/injection, schedule: Q04DX002 (ip), vehicle: Klucel (hydroxypropylcellulose) (HPC)) was 98 % of control and the T/C (dose: 300.0 mg/kg/injection, schedule: Q04DX002 (ip), vehicle: Klucel (hydroxypropylcellulose) (HPC)) was 98 % of control.

With COC(=O)c1nnc(C(=O)OC)nn1 the T/C (dose: 100.0 mg/kg/injection, schedule: Q04DX002 (ip), vehicle: saline) was 96 % of control, the T/C (dose: 200.0 mg/kg/injection, schedule: Q04DX002 (ip), vehicle: saline) was 115 % of control and the T/C (dose: 400.0 mg/kg/injection, schedule: Q04DX002 (ip), vehicle: saline) was 96 % of control.
